Test results reported in PMC12267471, “Discovery of natural scaffolds as HER2 inhibitors for breast cancer: virtual screening, molecular dynamics, and biological characterization with selectivity profiling” (Scientific Reports, 2025).
Where two headings read alike, the source gives them in different places.

What was measured:
[1] = test system: BT-474 cells; assay: MTT proliferation assay, BT-474; format: cell-based, human; settings: Homo sapiens
[2] = test system: caspase 9; assay: Real-time PCR caspase gene expression in BT-474 cells; format: cell-based, human; settings: BT-474, liquiritin at its IC50
Description: (§1) RNA extraction was performed using Qiagen total RNA extraction kit from seeded BT-474 cells untreated and treated with liquiritin at a concentration equivalent to its respective IC50 value (determined via prior proliferation assays) according to the manufacturer’s manual. NanoDrop Lite Plus spectrophotometer™ (ThermoScientific, USA) was used for quantitation and purity evaluation of the extracted total RNA. cDNA synthesis and real-time quantitative PCR were performed in one reaction tube using iScript™ One-Step RT-PCR Kit with SYBR® Green (Bio-Rad, USA) using primers listed in Table S2 per the instruction’s manual. The relative gene expression of caspases 3, 8, and 9 was analyzed using the 2^−ΔΔCT method along with untreated BT-474 cells as control and Glyceraldehyde-3-phosphate dehydrogenase (GAPDH) as a housekeeping gene. The data were expressed as fold change in gene expression.

[3] = test system: caspase 8; assay: as above; format: cell-based, human; settings: BT-474, liquiritin at its IC50
Description: as §1

[4] = test system: caspase 3; assay: as above; format: cell-based, human; settings: BT-474, liquiritin at its IC50
Description: as §1

[5] = test system: SKBR3 cells; assay: MTT proliferation assay, SKBR3; format: cell-based, human; settings: Homo sapiens, SK-BR-3
[6] = test system: HER2 protein in SKBR3 cells; assay: Western blot of p-HER2 and t-HER2, SKBR3; format: cell-based, human; settings: SKBR3, 10 µM, 72 h
Description: SKBR3 and BT-474 were plated in RPMI-1640 media, washed, and incubated for 72 h. They were lysed in cold lysis buffer, frozen, collected, sonicated, and centrifuged for 10 min under cooling. The stacking and resolving solutions for polyacrylamide gels were prepared using various solutions, including 30% acrylamide, 0.5 M Tris, 10% SDS, 10% Ammonium persulfate, and 0.005 mL TEMED in 3.4 mL water and 3.3 mL water respectively. The ReadyPrepTM protein extraction kit was used to extract total protein from samples. Protein concentration was determined using the Bradford Protein Assay Kit. Samples were mixed with Laemmli sample buffer, pH adjusted and boiled for five minutes at 95 °C before loading onto SDS-polyacrylamide gels. Proteins in each sample were mixed, boiled, and loaded onto SDS-polyacrylamide gels. They were separated using the SDS-PAGE method, using the TGX Stain-Free™ FastCast™ Acrylamide Kit and a Cleaver electrophoresis unit. Proteins were transferred from gels to PVDF membranes using transfer sandwiches. Filter paper, membrane, gel, and filter paper were stacked in a sandwich. Gels were blotted onto PVDF membranes via electrophoresis using a Bio-Rad Semi-dry Electroblotter for 30 min. […] The intensity of each band was quantitated using ImageLab.

[7] = target: T1, HER2 kinase (Homo sapiens, UniProt P04626); assay: Z'-LYTE Kinase Assay-Tyr6 Peptide biochemical HER2 kinase assay; settings: cell-free Z'-LYTE, Tyr6 peptide substrate; read-out: IC50, inhibition of ATP-induced HER2 phosphorylation
T1 construct: HER2 purified kinase domain (amino acids 676–1255); purchased Thermo Fischer Scientific PV3590
T1 sequence (P04626 676-1255): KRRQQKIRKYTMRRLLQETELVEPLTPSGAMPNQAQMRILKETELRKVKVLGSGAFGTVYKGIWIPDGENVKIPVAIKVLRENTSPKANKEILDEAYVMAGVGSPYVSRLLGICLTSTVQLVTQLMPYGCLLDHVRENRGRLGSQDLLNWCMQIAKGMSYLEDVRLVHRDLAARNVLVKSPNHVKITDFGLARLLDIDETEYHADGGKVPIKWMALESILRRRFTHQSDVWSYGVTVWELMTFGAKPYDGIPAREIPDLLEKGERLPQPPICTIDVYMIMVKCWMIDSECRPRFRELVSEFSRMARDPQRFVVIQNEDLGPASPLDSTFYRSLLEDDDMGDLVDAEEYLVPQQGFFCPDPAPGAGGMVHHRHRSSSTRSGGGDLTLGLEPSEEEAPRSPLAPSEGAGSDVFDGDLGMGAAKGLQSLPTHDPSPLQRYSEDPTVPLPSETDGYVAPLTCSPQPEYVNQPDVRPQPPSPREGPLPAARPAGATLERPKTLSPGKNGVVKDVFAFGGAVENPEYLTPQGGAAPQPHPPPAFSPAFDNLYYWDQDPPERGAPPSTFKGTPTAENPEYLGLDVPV
Source text: The Z’-LYTE™ Kinase Assay-Tyr6 Peptide kit (Thermo Fischer Scientific™, Madison, WI, USA) was employed to evaluate the potential of selected natural products to suppress the catalytic activity of HER2 kinase. The assay adopts a Fluorescence Resonance Energy Transfer (FRET) based method in a cell-free coupled-enzyme format with no use of antibodies. The assay method mainly relies on the difference in sensitivity of phosphorylated and non-phosphorylated peptides to proteolytic cleavage. This method is a ratio metric method that calculates the Emission Ratio of donor emission divided by acceptor emission after excitation of the donor fluorophore at 400 nm. In this assay, 20 µL/well reactions containing kinase buffer, 200 µM ATP, 4µM Z’-LYTE Tyr6 Peptide substrate, 2500 ng/mL HER2 kinase, and drugs of interest functioning as inhibitors were set up in 96-well plates. Each well received 10 µL of site-specific protease development solution after one hour of room temperature incubation. The incubation continued for a full hour. Following process termination, the kinase inhibitory activity and/or peptide substrate cleavage status were assessed using a plate reader (BioTek FLx800™) to measure the ratio of fluorescence signal at 445 nm (coumarin)/520 nm (fluorescein).
The IC50 value for each natural product was computed using XLfit® 4.1 software (ID Business Solutions Inc. (IDBS), Emeryville CA), applying non-linear regression of log concentration against the percentage of HER2 inhibition.
Utilizing the Z’-LYTE™ Kinase Assay-Tyr6 Peptide kit as a cell-free system for evaluating the inhibitory activity of HER2, the five natural products were evaluated for their capacity to inhibit HER2 phosphorylation. Since its kinase catalysis is necessary for all HER2-mediated activities, we attempted at this initial stage to validate the HER2 inhibitory ability of the five in silico hits directly on the HER2 purified kinase domain (amino acids 676–1255), that was in vitro phosphorylated to attain the maximum level of intrinsic kinase activity. In this assay, the substrate was Z’-LYTE™ Tyr6 peptide; thus, the changes in its phosphorylation can directly correlate with the HER2 kinase activity. In the meantime, tyrphostin AG 1478 was used as a positive control to ensure the validity of the assay. Lapatinib (Tykerb®) was included as a second positive control to benchmark virtual hits’ performance against clinically approved standards.

## O=C1C[C@@H](c2ccc(O[C@@H]3O[C@H](CO)[C@@H](O)[C@H](O)[C@H]3O)cc2)Oc2cc(O)ccc21 [Liquiritin]
[1]; BT-474, MTT, 48 h (Table S8), read-out: Cell growth inhibition IC50
  IC50: 3.5 µM
[1]; BT-474, Table S9, read-out: IC50
  IC50: 3.5 ± 0.1 µM
[2]
  caspase 9 expression, fold change vs untreated cells: ~8.1 fold
[3]
  caspase-8 expression, fold increase: 2.6 fold
[4]
  caspase 3 expression, fold change vs untreated cells: approximately 10.8 fold
[5]; SKBR3, MTT, 48 h (Table S8), read-out: Cell growth inhibition IC50
  IC50: 6.4 µM
[5]; SKBR3, Table S9, read-out: IC50
  IC50: 6.4 ± 0.2 µM
[6]
  total expression levels of HER2 protein: comparable suppressive effects
[6]; vs vehicle
  HER2 phosphorylation: significantly inhibited HER2 phosphorylation
[7]
  IC50: 0.0185 µM
